In series [1] the test system is ovariectomized Wistar female rats. Put plainly: Antiuterotrophic/antisulfatase activity: inhibition of E1S stimulated uterus weight. Format: in vivo, rat. As to conditions: for % inhibition of the E1S induced stimulation (uterus weight): ovariectomized rats, E1S 50 μg/kg/day s.c., compound oral 1 mg/kg/day for 4 days. The method, then:
A short model, derived from Purohit's method, was developed for the evaluation in vivo of nonestrogenic steroid sulfatase inhibitors.
Wistar female rats were ovariectomized and left to rest for 4 weeks. Prior to treatment, the absence of cyclicity was checked by vaginal smears.
Animals were supplemented with estrone sulfate (E1S) at 50 μg/kg/day s.c., alone or combined with oral administration of potential sulfatase inhibitors, at 1 mg/kg/day for 4 days. The uteri were removed, freed of adjacent tissue and wet weighed.
The results are expressed as % of inhibition of the E1S induced stimulation.
The activity of Ex 55 on E1S stimulated uterus weight was evaluated in relation to the standard inhibitor 6,6,7 COUMATE from 0.03 mg/kg/day to 1 mg/kg/day p.o.
(§1) In this study, a last administration was performed 24 hours before the necropsy for E1S and E2 serum levels assays. The uteri were removed, freed of adjacent tissue, wet weighed and immediately deep frozen until the determination of sulfatase activity.

Series [2] concerns the target T1, estrone sulfatase (Rattus norvegicus, UniProt P15589).
T1 construct: uteri were thawed, weighed and homogenized; from tissue; host or cells: uterus of animals dosed orally (ex vivo homogenate supernatant)
T1 sequence (P15589 20-577): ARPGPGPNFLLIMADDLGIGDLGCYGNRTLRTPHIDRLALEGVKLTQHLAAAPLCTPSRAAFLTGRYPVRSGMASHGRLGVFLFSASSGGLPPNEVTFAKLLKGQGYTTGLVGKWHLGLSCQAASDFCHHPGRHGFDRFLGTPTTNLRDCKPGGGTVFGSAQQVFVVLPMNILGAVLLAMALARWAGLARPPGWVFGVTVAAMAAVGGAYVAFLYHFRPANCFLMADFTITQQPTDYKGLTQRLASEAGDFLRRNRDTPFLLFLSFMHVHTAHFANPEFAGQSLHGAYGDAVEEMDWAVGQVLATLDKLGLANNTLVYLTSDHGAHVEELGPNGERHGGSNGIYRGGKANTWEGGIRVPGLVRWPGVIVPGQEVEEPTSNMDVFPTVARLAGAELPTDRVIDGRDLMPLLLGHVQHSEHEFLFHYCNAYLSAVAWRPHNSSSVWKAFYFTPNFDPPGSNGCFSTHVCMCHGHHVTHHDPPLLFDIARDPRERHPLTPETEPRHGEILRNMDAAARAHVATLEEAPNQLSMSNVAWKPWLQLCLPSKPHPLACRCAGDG
Put plainly: Estrone sulfatase activity in the uterus of treated rats. The series is classed as in vivo. How it is done: as §1
Estrone sulfatase activity was measured according to the method described by Purohit et al., with slight modifications. Briefly, uteri were thawed, weighed and homogenized. Aliquots of the supernatant were treated with dextran-coated charcoal and assayed for sulfatase. E1S activity was assessed after 30 min of incubation with 5 nM of ^3H-E1S and 20 μM of unlabelled E1S as substrate. Radioactivity was measured by LSC.
Estrone sulfatase activity was expressed as pmol/h/mg protein and reported as percentage of inhibition versus E1S.

Series [3] in a line: Serum estrogen levels (E1S and E2) in treated rats. The series is classed as in vivo, rat. The conditions noted are these: 24 h after last administration. How it is done:
as §1
E1S and E2 levels were determined according to the supplier's standard method (DSL, Webster, Tex., USA).

Series [4] has as its system MCF-7 cells. Put plainly: Hormono-dependent induced MCF-7 xenografts: volume and weight. Format: in vivo, mice. As to conditions: oral 0.1 mg/kg/day for 6 weeks. The method, then: (§2) MCF-7 cells, derived from human breast adenocarcinoma, were injected subcutaneously in ovariectomized athymic nude mice supplemented with estrone sulfate (pellets 0.5 mg/90 day release). Xenograft volumes were determined once weekly. When tumor volumes reached a significant increase, 6,6,7 COUMATE and Ex 55 were orally administered at 0.1 mg/kg/day for 6 weeks.
(§3) Xenografts were measured, removed, weighed, and deep frozen until the determination of steroid sulfatase activity.

In series [5] the target is T2, steroid sulfatase (Homo sapiens, UniProt P08842).
T2 construct: from tissue; host or cells: MCF-7 xenograft tumour removed from athymic nude mice
T2 sequence (P08842 22-583): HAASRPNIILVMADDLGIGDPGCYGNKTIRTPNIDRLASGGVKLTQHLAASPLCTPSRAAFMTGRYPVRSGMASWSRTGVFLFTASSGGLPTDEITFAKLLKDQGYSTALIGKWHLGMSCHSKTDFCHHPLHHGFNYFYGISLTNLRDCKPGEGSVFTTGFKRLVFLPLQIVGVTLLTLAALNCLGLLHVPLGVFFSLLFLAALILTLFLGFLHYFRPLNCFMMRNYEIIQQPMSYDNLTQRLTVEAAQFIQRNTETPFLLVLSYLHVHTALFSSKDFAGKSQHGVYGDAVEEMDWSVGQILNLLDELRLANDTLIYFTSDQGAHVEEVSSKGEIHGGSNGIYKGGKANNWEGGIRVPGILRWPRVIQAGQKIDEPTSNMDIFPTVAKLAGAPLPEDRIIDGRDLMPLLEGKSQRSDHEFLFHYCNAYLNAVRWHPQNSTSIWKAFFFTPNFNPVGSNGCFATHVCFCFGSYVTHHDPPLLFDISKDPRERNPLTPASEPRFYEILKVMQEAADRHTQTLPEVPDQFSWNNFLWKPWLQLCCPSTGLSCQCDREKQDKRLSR
Nature of the series: Xenograft steroid sulfatase activity. Format: in vivo, mouse. As to conditions: oral 0.1 mg/kg/day for 6 weeks. How it is done:
as §2, §3

The test system of series [6] is prepubescent female rats. Nature of the series: Residual estrogenic activity in vivo (uterotrophic assay). The conditions noted are these: prepubescent female rats, oral, 1 mg/rat/day for 3 days.
Method: These compounds were checked for residual estrogenic activity in vivo in the classical uterotrophic assay after 3-day administration by oral route in prepubescent female rats.
Prepubescent female rats were orally treated at 1 mg/rat/day for 3 days. On the day following the last treatment, uteri were removed and wet weight were recorded.
The results are expressed as % of stimulation of uterus weight in comparison with controls.
Series [7] deals with T3, estrone sulfatase (Homo sapiens, UniProt P08842).
T3 sequence (P08842 22-583): T2 sequence (P08842 22-583)
Put plainly: Estrone sulfatase whole-cell assay on JEG-3 cells. The series is classed as cell-based. Also noted: The JEG-3 cell line, derived from a human placental choriocarcinoma, is spontaneously very rich in human estrone sulfatase; endogenous in cells; host or cells: JEG-3 (human placental choriocarcinoma), intact cells. As to conditions: 4 h treatment, 3H-E1S, read-out: IC50 (nM) ± S.E.M., inhibition of estrone sulfatase. How it is done: (§4) Two in vitro models on whole cells were used. […] Moreover, these cells were used in the in vivo model of hormono-dependent induced xenografts.
(§5) Estrone Sulfatase Assay on Cells
(§6) Whole-cell assays were performed as originally described by Duncan et al. (Cancer Res., 1993, 53: 298-303) on intact MCF-7 cell monolayers. Assays were carried out with cells in logarithmic growth phase, on 96-well (JEG-3) or 24-well (MCF-7) microplates. Twenty-four hours (JEG-3) or 72 h (MCF-7) before studies, cells were seeded in decomplemented fetal calf serum (dFCS) supplemented medium. Then, the seeding medium was removed and the cells were rinsed with PBS to eliminate any trace of dFCS. Then, ^3H-E1S was added, followed by test compounds ranging from 10^−12 M to 10^−5 M. After 4 h (JEG-3) or 20 h (MCF-7) of treatment, the medium was transferred into either 96-deep-well microplates (JEG-3) or plastic tubes (MCF-7) and centrifuged at 200×g for 10 min to pellet cells before toluene extraction. A fraction of medium was used for toluene extraction in order to separate conjugated substrate and non-conjugated products. The radioactivity in the toluene phase was measured by liquid scintillation counting (LSC). Finally, estrone sulfatase activity was expressed in pmoles of ^3H-E1+^3H-E2 formed per 4 or 20 hours and per μg DNA and estrone sulfatase inhibition in percentage of control activity without inhibitor.

Series [8] addresses T3, estrone sulfatase. Nature of the series: Estrone sulfatase whole-cell assay on MCF-7 cells. Further details: Whole-cell assays were performed as originally described by Duncan et al. (Cancer Res., 1993, 53: 298-303) on intact MCF-7 cell monolayers; endogenous in cells; host or cells: MCF-7 (human breast adenocarcinoma), intact monolayers. Format: cell-based. The conditions noted are these: 20 h treatment, 3H-E1S, read-out: IC50 (nM) ± S.E.M., inhibition of estrone sulfatase. How it is done:
as §4, §5, §6

[9] abbreviates: MCF-7 xenografts, nude mice with E1S pellet.

What is called inhibition is how much of the control response was suppressed. Consider `NS(=O)(=O)Oc1ccc2c3c(c(=O)oc2c1)CCCCC3` [6,6,7-COUMATE, reference compound], for which the “Inhibition of E1S stimulated uterus weight” value is reported as 0% in series [1] (0.03 mg/kg/day p.o.), 13% in series [1] (0.1 mg/kg/day p.o.), 52% in series [1] (0.3 mg/kg/day p.o.) and 84% in series [1] (1 mg/kg/day p.o.). In series [1], the “% inhibition of the E1S induced stimulation (uterus weight)” value is reported as 86%. Further, the “Estrone sulfatase activity in the uterus, percentage of inhibition versus E1S” value is listed as 36% in [2] (0.03 mg/kg/day p.o.), 78% in series [2] (0.1 mg/kg/day p.o.), 96% in series [2] (0.3 mg/kg/day p.o.) and 97% in series [2] (1 mg/kg/day p.o.). Besides, the “E1S levels (serum)” value amounted to 24 ± 3.1 ng/mL in series [3] (0.03 mg/kg/day p.o.), 26 ± 2.6 ng/mL in series [3] (0.1 mg/kg/day p.o.), 59 ± 6.4 ng/mL in [3] (0.3 mg/kg/day p.o.) and 80 ± 5.7 ng/mL in series [3] (1 mg/kg/day p.o.). In addition, the “E2 levels (serum)” value in series [3] (0.03 mg/kg/day p.o.) amounted to 33 ± 5.8 pg/mL; in series [3] (0.1 mg/kg/day p.o.), 28 ± 2.5 pg/mL; in series [3] (0.3 mg/kg/day p.o.) it was 18 ± 1.1 pg/mL; in series [3] (1 mg/kg/day p.o.), 16 ± 1.5 pg/mL. For the same molecule, the “Xenograft volume after 6 week treatment” value in series [4] (setting [9]) came out at 1854 ± 243 mm^3. The “Xenograft weight after 6 week treatment” value in series [4] (setting [9]) is 1467 ± 191 mg. For the same molecule, the “inhibition of the E1S induced stimulation (xenograft volume)” value in [4] is reported as “did not inhibit”. The “inhibition of xenograft weight” value in series [4] is “did not inhibit”. Also, the “Xenograft steroid sulfatase activity” value in series [5] (MCF-7 xenografts) is on record as 540 ± 54 pmol/h/mg protein. Moreover, in [5] (read-out: inhibition of intratumoral steroid sulfatase activity), the inhibition at 0.1 mg/kg/day was found to be 67%. Moreover, the “% stimulation of uterus weight in comparison with controls” value in [6] is listed as 3%.
In general, melting point refers to the temperature of the solid-liquid transition. The term IC50 denotes the concentration needed to halve the response being measured. As to `CC1CCC(C2=Cc3ccc(OS(N)(=O)=O)cc3S2(=O)=O)CC1` (centres unmarked) [Ex 48, Sulfamic acid, 2-(4-methylcyclohexyl)-benzothiophene-6-yl-1,1-dioxide ester], the melting point is 170 °C. The “% inhibition of the E1S induced stimulation (uterus weight)” value in series [1] was 60%. The “% stimulation of uterus weight in comparison with controls” value in series [6] was found to be 3%. In addition, in series [7], the IC50 is 7.6 ± 1.3 nM. The IC50 in series [8] turned out to be 0.09 ± 0.02 nM.
